Laboratory results taken from ChEMBL document CHEMBL1201862, “PubChem BioAssay data set” (2004).
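Protocol summary: plate cells (96-well), add compound at 5 concentrations, incubate 48 h, interpolate endpoints linearly. Here, GI50 denotes the concentration required for 50% inhibition of growth.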 The source made the active and inactive calls. No stated cut-off is given here; in the data, active = GI50 up to about 1.1 µM and inactive = higher.

What was measured:
Assay in all cases: growth of human tumour cells (NCI), 48 h
NCI-H226 = tested on: NCI-H226
A549 = tested on: A549
786-0 = tested on: 786-0
HCT-116 = tested on: HCT-116
SK-MEL-5 = tested on: SK-MEL-5
COLO 205 = tested on: COLO 205
SK-MEL-2 = tested on: SK-MEL-2
M14 = tested on: M14
SF-539 = tested on: SF-539
KM12 = tested on: KM12
NCI-H522 = tested on: NCI-H522
A498 = tested on: A498
SN12C = tested on: SN12C
U-251 = tested on: U-251
HT-29 = tested on: HT-29
SF-295 = tested on: SF-295

Compound	GI50 (NCI-H226)	GI50 (A549)	GI50 (786-0)	GI50 (HCT-116)	GI50 (SK-MEL-5)	GI50 (COLO 205)	GI50 (SK-MEL-2)	GI50 (M14)	GI50 (SF-539)	GI50 (KM12)	GI50 (NCI-H522)	GI50 (A498)	GI50 (SN12C)	GI50 (U-251)	GI50 (HT-29)	GI50 (SF-295)
COc1cc(OC)c2ssc3c(OC)cc(OC)c4ssc1c2-c43	> 100 µM (inactive)	> 100 µM (inactive)	> 100 µM (inactive)	> 100 µM (inactive)	> 100 µM (inactive)	> 100 µM (inactive)	> 100 µM (inactive)	> 100 µM (inactive)	> 100 µM (inactive)	> 100 µM (inactive)	> 100 µM (inactive)	> 100 µM (inactive)	> 100 µM (inactive)	> 100 µM (inactive)	> 100 µM (inactive)	> 100 µM (inactive)
O=C(Nc1ccc(Cl)cc1Cl)C1C(=O)C(=O)N(c2ccc(Cl)cc2Cl)C1=O (centres undefined)	34.1 µM (inactive)	> 100 µM (inactive)	> 100 µM (inactive)	99.1 µM (inactive)	> 100 µM (inactive)	–	–	> 100 µM (inactive)	> 100 µM (inactive)	> 100 µM (inactive)	> 100 µM (inactive)	> 100 µM (inactive)	> 100 µM (inactive)	> 100 µM (inactive)	> 100 µM (inactive)	–
O=C(/C=N/O)Nc1ccc(Cl)c(I)c1	0.0445 µM (active)	26.9 µM (inactive)	29.3 µM (inactive)	12.9 µM (inactive)	18.4 µM (inactive)	13.6 µM (inactive)	15.7 µM (inactive)	18.6 µM (inactive)	–	20.6 µM (inactive)	14.7 µM (inactive)	–	22.5 µM (inactive)	16.1 µM (inactive)	33.3 µM (inactive)	29.5 µM (inactive)
CN(C)CC(C)(C)C(/C=C/c1ccccc1)=N\Nc1ccccc1	–	0.385 µM (active)	0.457 µM (active)	0.705 µM (active)	6.64 µM (inactive)	3.19 µM (inactive)	3.6 µM (inactive)	5.01 µM (inactive)	0.28 µM (active)	0.579 µM (active)	6.14 µM (inactive)	21.8 µM (inactive)	1.71 µM (inactive)	0.306 µM (active)	11 µM (inactive)	0.131 µM (active)
O=C(CC1(O)C(=O)Nc2ccc([N+](=O)[O-])cc21)c1ccc2ccccc2c1 (centres undefined)	> 100 µM (inactive)	> 100 µM (inactive)	> 100 µM (inactive)	> 100 µM (inactive)	–	> 100 µM (inactive)	> 100 µM (inactive)	> 100 µM (inactive)	> 100 µM (inactive)	> 100 µM (inactive)	65.6 µM (inactive)	> 100 µM (inactive)	> 100 µM (inactive)	> 100 µM (inactive)	> 100 µM (inactive)	> 100 µM (inactive)
CC1OC(=O)N2CCC=CC12 (centres undefined)	> 100 µM (inactive)	> 100 µM (inactive)	> 100 µM (inactive)	> 100 µM (inactive)	> 100 µM (inactive)	> 100 µM (inactive)	> 100 µM (inactive)	–	> 100 µM (inactive)	> 100 µM (inactive)	> 100 µM (inactive)	> 100 µM (inactive)	> 100 µM (inactive)	> 100 µM (inactive)	> 100 µM (inactive)	> 100 µM (inactive)
O=[N+]([O-])c1nccn1CC(O)CN1CC1 (centres undefined)	94 µM (inactive)	> 100 µM (inactive)	65.6 µM (inactive)	47.6 µM (inactive)	71.8 µM (inactive)	44.6 µM (inactive)	41.6 µM (inactive)	> 100 µM (inactive)	55.6 µM (inactive)	66.8 µM (inactive)	21.5 µM (inactive)	> 100 µM (inactive)	61.8 µM (inactive)	35.6 µM (inactive)	56.6 µM (inactive)	> 100 µM (inactive)
